This is an account of results in patent US12240892B2, “Pharmaceutical composition comprising expression or activity inhibitor of c-src for preventing or treating synucleinopathy” (AJOU UNIVERSITY INDUSTRY-ACADEMIC COOPERATION FOUNDATION, priority 2018, dated 2025).

For data set [1], the system named is SHSY5Y overexpressing A53T eGFP. In words: Amount of aggregated α-syn in differentiated cells overexpressing A53T eGFP, confocal microscopy. The note with it: for amount of α-syn aggregated in the cells: Src KD SHSY5Y overexpressing A53T eGFP, 50 μM retinoid acid, differentiated 5 days. Type of data set: cell-based.
Data set [2] has as its system SHSY5Y cell line. In words: α-syn intercellular migration, two-chamber co-culture, immunostaining and confocal microscopy. Type of data set: cell-based. The note with it: 0.1 μM saracatinib, 10 μM SKI; co-culture 12 hours with SHSY5Y overexpressing α-syn; vs PBS control. How it is done: The SHSY5Y cell overexpressing alpha-synuclein was seeded at 4×10^4 in a 12-well plate in an insert well using a two-chamber system, and the SHSY5Y cell line was seeded at 4×10^4 on the cover glass. The next day, the insert well was transferred to a 12-well cover glass, and during co-culture for 12 hours, the SHSY5Y cell line was treated with 0.1 μM saracatinib and 10 μM SKI (c-src kinase inhibitor I), which are c-src inhibitors, and then alpha-synuclein in SHSY5Y cell line on the cover glass was immunostained (α-syn: red, nucleus: blue) and observed using a confocal microscope to confirm that alpha-synuclein was migrated from SHSY5Y overexpressing alpha-synuclein to SHSY5Y not overexpressing alpha-synuclein.
Next, c-src knockdown SHSY5Y cell lines (KD #1 and KD #2), constructed using shRNAs of […], and dopaminergic neuronal cell line SHSY5Y overexpressing α-syn were co-cultured for 12 hours using a two-chamber system. The co-culture will be described in brief. SHSY5Y cells were seeded at a concentration of 4×10^4 cells/well on a 12-well cover glass. […]

With “SEQ ID NO: 2: shRNA against c-src: CCGGGACAGACCUGUCCUUCAAGAACUCGAGUUCUUGAAGGACAGGUCUGUCUUUUUG (listed as RNA, chemistry not fully specified)”, in data set [1], the “amount of α-syn aggregated in the cells” value was “decreased”.

As for `COc1cc2ncnc(Nc3ccc(Oc4ccccc4)cc3)c2cc1OC` [SKI], the “migration of α-syn” value in data set [2] is “reduced”. In data set [1] (10 μM SKI, 0.5 μM saracatinib, differentiated with 50 μM RA), the “amount of aggregated α-syn” value was “decreased”.

Turning to “SEQ ID NO: 1: shRNA against c-src: CCGGGCUCGGCUCAUUGAAGACAAUCUCGAGAUUGUCUUCAAUGAGCCGAGCUUUUUG”, in data set [1], the “amount of α-syn aggregated in the cells” value is on record as “decreased”.
